Five compounds from ChEMBL document CHEMBL3616393, “Recent progress on MAP kinase pathway inhibitors” (Bioorg Med Chem Lett, 2015) can be followed below.

The target of data set [1] is Serine/threonine-protein kinase B-raf (Homo sapiens) (UniProt P15056). The data set is described as follows: Binding affinity to B-RAF (unknown origin) assessed as dissociation half life.
The subject of data set [2] is Homo sapiens. The data set is described as follows: Toxicity in patient administered daily. The following applies: in vivo. In kind it is organism-based.
For data set [3], the system named is Homo sapiens. The data set is described as follows: In vivo inhibition of B-RAF in naive patient relative to control. In kind it is functional.
Data set [4] has as its system Homo sapiens. The data set is described as follows: In vivo inhibition of B-RAF in inhibitor-pretreated patient relative to control. The data set is classed as functional.
Data set [5] in a line: Plasma half life in po dosed Sprague-Dawley rat. In kind it is ADME, organism-based.
Data set [6] in a line: Effective half life in patient. In kind it is ADME, organism-based. The following applies: human, in vivo; read-out: t1/2eff.
The target in data set [7] is T1, Mitogen-activated protein kinase 3 (Homo sapiens, UniProt P27361). The data set can be described thus: Competitive inhibition of ERK1 (unknown origin) in presence of ATP.
T1 sequence (P27361 whole entry): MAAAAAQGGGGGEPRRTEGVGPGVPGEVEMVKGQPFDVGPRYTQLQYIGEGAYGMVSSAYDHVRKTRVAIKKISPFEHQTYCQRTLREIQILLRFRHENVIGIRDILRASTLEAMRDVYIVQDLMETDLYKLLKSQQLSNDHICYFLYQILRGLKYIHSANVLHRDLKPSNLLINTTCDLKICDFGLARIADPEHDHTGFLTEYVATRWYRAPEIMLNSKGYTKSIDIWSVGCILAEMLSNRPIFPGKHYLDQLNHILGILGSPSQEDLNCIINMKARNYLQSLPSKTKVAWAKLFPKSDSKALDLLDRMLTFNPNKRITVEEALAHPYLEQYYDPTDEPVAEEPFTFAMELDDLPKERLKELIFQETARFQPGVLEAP
Data set [8] deals with T1, Mitogen-activated protein kinase 3. The data set is described as follows: Inhibition of ERK1 (unknown origin) after 45 mins by IMAP assay.

Serine/threonine-protein kinase B-raf (Homo sapiens), sequence (P15056 whole entry): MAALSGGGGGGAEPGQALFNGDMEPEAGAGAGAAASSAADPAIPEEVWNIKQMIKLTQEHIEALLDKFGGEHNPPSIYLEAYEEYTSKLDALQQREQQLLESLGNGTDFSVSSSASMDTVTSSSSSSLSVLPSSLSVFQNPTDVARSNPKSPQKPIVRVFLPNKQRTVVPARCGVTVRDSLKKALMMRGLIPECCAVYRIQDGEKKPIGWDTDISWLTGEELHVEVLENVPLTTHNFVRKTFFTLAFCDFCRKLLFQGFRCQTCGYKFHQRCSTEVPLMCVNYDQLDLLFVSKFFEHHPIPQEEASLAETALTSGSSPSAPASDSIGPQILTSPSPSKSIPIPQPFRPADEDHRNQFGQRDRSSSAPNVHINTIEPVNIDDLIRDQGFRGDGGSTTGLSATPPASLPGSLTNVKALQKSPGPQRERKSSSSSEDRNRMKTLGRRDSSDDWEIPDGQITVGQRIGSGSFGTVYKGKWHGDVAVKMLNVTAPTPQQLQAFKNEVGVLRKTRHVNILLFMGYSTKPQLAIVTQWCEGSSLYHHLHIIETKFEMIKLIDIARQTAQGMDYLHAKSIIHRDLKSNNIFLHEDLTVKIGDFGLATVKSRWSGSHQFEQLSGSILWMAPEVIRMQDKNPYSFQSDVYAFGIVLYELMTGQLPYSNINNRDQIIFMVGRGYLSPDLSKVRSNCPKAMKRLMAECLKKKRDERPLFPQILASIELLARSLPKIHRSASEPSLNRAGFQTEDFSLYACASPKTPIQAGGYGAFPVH

Take `COC(=O)N[C@@H](C)CNc1nccc(-c2cn(C(C)C)nc2-c2cc(Cl)cc(NS(C)(=O)=O)c2F)n1` [ENCORAFENIB]: in data set [1], the T1/2 is above 24 h. This compound yielded an MTD in the data set with Homo sapiens [2] of 600 mg. Besides, the “inhibition (INH)” value with Homo sapiens [3] stood at 58%; in the data set on Homo sapiens [4], 11%.

As for `CC(=O)Nc1cccc(-n2c(=O)n(C3CC3)c(=O)c3c(Nc4ccc(I)cc4F)n(C)c(=O)c(C)c32)c1` [TRAMETINIB], the half-life in data set [5] is above 30 h; in data set [6], above 40 h.

On to `CC(C)Nc1cc(-c2c[nH]c(C(=O)N[C@H](CO)c3cccc(Cl)c3)c2)c(Cl)cn1`, for which the INH in data set [7] was determined as 300 pM.

In the case of `Cn1cnc2c(F)c(Nc3ccc(Br)cc3F)c(C(=O)NOCCO)cc21` [BINIMETINIB], the “inhibition (INH)” value with Homo sapiens [3] was found to be 88%; in the data set on Homo sapiens [4], 18%.

As usually defined, the IC50 is the concentration that inhibits the measured activity by half. A lower IC50 goes with inhibition by little substance. For `O=C(Nc1ccc2[nH]nc(-c3ccncc3)c2c1)[C@@H]1CCN(CC(=O)N2CCN(c3ccc(-c4ncccn4)cc3)CC2)C1`, the IC50 in data set [8] came out at 4 nM.
